Measurements from ChEMBL document CHEMBL4507276 (2021).

Experiments:
[1] = target: Adenosine receptor A2a (Homo sapiens) (UniProt P29274); experiment: A2A/H Cerep selectivity data (BI); conditions: filed as antagonist, Compound concentration 20.0 uM
[2] = target: Corticotropin-releasing factor receptor 1 (Homo sapiens) (UniProt P34998); experiment: CRF1/H Cerep selectivity data (BI); conditions: Compound concentration 20.0 uM
[3] = target: Endothelin receptor type B (Homo sapiens) (UniProt P24530); experiment: ETB/H Cerep selectivity data (BI); conditions: Compound concentration 20.0 uM
[4] = target: Guanylate cyclase soluble subunit alpha-1 (Bos taurus) (UniProt P19687); experiment: GUACYCBASAL Cerep selectivity data (BI); conditions: Homo sapiens; Compound concentration 20.0 uM
[5] = target: Prostacyclin receptor (Homo sapiens) (UniProt P43119); experiment: PGI2/H Cerep selectivity data (BI); conditions: Compound concentration 20.0 uM
[6] = target: Beta-1 adrenergic receptor (Homo sapiens) (UniProt P08588); experiment: BETA1/HU Eurofins-Panlabs selectivity data (BI); conditions: Compound concentration 10.0 uM
[7] = target: Macrophage colony-stimulating factor 1 receptor (Homo sapiens) (UniProt P07333); experiment: CSF1R Invitrogen selectivity data (BI); conditions: Compound concentration 3.0 uM
[8] = target: Casein kinase I isoform alpha (Homo sapiens) (UniProt P48729); experiment: CSNK1A1 Invitrogen selectivity data (BI); conditions: Compound concentration 3.0 uM
[9] = target: Mitogen-activated protein kinase 10 (Homo sapiens) (UniProt P53779); experiment: MAPK10 Invitrogen selectivity data (BI); conditions: Compound concentration 3.0 uM
[10] = target: Mitogen-activated protein kinase 14 (Homo sapiens) (UniProt Q16539); experiment: MAPK14P38A Invitrogen selectivity data (BI); conditions: Compound concentration 3.0 uM
[11] = target: T1, Serine/threonine-protein kinase Nek1 (Homo sapiens) (UniProt Q96PY6); experiment: NEK1 Invitrogen selectivity data (BI); conditions: Compound concentration 3.0 uM
T1 sequence (whole entry): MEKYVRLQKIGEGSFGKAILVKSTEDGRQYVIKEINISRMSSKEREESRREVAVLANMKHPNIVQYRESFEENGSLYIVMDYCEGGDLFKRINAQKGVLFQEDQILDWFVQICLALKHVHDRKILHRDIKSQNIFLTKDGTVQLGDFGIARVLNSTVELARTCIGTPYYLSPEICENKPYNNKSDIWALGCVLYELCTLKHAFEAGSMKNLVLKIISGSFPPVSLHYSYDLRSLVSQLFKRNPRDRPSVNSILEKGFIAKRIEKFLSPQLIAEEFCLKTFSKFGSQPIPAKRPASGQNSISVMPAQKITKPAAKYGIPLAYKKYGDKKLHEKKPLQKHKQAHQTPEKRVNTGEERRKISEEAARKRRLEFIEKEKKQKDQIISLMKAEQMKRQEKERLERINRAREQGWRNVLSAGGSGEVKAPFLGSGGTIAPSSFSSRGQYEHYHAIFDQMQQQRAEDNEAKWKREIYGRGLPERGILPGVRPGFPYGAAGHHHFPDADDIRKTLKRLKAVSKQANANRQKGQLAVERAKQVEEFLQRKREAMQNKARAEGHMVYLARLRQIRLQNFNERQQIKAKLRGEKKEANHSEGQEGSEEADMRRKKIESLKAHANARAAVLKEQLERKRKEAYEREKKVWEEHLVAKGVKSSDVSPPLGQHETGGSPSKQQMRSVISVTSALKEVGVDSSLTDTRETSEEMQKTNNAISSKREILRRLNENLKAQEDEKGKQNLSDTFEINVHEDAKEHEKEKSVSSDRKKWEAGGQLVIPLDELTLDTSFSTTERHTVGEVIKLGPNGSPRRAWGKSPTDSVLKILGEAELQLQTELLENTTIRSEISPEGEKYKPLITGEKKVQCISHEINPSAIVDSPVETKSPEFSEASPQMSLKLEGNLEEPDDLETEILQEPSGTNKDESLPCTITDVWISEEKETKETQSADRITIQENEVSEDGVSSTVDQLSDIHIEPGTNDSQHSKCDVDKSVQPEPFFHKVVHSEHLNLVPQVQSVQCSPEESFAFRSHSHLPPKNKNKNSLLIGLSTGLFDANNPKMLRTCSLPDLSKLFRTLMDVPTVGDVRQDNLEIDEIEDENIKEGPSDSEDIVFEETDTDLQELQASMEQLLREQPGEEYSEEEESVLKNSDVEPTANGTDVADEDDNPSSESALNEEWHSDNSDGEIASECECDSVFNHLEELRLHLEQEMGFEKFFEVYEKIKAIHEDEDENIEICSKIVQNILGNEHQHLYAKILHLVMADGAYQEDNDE

[12] = target: Protein kinase C beta type (Homo sapiens) (UniProt P05771); experiment: PRKCB1 Invitrogen selectivity data (BI); conditions: Compound concentration 3.0 uM
[13] = target: Sphingosine kinase 2 (Homo sapiens) (UniProt Q9NRA0); experiment: SPHK2 Invitrogen selectivity data (BI); conditions: Compound concentration 3.0 uM
[14] = target: Non-receptor tyrosine-protein kinase TYK2 (Homo sapiens) (UniProt P29597); experiment: TYK2 Invitrogen selectivity data (BI); conditions: Compound concentration 3.0 uM
[15] = target: T2, Tyrosine-protein kinase receptor TYRO3 (Homo sapiens) (UniProt Q06418); experiment: TYRO3 Invitrogen selectivity data (BI); conditions: Compound concentration 3.0 uM
T2 sequence (whole entry): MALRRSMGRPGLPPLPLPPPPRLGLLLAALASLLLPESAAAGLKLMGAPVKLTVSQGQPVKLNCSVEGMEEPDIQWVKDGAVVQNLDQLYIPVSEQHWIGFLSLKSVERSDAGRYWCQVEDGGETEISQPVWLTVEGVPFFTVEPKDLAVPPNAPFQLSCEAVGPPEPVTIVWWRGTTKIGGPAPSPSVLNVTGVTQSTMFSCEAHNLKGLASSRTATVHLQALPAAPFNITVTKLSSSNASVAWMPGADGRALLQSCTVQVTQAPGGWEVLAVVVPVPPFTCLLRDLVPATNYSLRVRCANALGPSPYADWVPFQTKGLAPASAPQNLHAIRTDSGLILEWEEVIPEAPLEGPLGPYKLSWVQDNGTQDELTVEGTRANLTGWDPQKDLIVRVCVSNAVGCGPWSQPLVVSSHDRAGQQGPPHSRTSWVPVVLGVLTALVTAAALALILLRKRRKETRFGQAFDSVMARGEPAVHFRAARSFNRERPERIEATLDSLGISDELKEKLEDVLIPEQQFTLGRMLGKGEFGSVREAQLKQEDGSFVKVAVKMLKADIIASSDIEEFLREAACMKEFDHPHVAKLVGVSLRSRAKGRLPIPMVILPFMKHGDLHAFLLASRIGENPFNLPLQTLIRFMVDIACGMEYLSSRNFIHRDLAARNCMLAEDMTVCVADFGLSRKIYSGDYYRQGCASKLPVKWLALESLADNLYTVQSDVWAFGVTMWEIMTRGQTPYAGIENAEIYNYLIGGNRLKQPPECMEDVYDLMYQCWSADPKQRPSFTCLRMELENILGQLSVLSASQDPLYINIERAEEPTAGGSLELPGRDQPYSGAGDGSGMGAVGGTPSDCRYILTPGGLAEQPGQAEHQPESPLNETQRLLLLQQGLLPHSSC

Measured: residual activity

Chain of Endothelin receptor type B (Homo sapiens) (P24530 whole entry): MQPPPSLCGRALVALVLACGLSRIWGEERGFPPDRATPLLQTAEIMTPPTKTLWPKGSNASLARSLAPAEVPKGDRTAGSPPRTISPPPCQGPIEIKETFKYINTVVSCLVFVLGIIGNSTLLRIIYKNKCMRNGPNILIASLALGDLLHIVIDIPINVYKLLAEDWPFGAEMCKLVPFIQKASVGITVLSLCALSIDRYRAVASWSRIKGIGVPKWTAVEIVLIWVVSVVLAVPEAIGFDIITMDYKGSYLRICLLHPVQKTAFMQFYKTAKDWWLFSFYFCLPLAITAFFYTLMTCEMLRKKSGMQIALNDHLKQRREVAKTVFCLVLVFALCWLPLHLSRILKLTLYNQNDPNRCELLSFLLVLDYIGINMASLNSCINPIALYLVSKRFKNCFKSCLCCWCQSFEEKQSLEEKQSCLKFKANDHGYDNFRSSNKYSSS
Chain of Adenosine receptor A2a (Homo sapiens) (P29274 whole entry): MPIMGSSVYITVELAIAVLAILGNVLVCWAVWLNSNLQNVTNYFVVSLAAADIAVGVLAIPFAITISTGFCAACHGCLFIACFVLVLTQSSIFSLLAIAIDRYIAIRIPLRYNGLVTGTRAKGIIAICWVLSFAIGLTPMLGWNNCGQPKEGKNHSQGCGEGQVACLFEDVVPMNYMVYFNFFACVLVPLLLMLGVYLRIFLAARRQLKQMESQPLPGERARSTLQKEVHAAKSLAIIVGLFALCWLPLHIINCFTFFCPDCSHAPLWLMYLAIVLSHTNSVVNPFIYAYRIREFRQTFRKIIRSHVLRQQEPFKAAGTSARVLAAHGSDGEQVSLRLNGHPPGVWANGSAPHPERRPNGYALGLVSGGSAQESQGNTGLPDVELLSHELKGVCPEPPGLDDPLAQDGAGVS
Chain of Casein kinase I isoform alpha (Homo sapiens) (P48729 2-337 limits assumed): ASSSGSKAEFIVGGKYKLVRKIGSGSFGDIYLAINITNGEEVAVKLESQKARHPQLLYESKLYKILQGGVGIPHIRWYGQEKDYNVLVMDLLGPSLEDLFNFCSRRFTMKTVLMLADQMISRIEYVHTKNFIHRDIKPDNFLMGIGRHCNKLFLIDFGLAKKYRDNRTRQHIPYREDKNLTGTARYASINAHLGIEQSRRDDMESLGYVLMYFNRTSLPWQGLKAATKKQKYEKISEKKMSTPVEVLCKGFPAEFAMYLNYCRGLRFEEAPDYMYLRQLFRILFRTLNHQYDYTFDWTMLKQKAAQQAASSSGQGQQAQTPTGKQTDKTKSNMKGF
Chain of Sphingosine kinase 2 (Homo sapiens) (Q9NRA0 whole entry): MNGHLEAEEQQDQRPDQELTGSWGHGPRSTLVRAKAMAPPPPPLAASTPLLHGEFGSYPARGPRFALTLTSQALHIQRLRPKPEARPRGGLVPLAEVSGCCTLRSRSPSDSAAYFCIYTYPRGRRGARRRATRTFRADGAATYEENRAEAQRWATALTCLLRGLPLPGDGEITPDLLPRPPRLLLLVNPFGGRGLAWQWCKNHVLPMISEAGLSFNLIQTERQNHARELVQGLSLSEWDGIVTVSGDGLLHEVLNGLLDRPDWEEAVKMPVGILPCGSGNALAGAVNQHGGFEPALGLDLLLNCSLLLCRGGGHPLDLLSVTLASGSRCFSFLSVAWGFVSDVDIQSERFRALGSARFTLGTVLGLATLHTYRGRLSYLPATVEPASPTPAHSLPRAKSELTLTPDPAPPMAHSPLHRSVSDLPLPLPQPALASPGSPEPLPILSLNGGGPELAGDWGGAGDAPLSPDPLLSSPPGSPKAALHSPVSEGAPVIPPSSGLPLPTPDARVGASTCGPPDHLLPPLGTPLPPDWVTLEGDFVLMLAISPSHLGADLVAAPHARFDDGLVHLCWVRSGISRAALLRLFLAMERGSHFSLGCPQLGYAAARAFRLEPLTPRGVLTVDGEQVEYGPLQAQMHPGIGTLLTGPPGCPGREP
Chain of Corticotropin-releasing factor receptor 1 (Homo sapiens) (P34998 whole entry): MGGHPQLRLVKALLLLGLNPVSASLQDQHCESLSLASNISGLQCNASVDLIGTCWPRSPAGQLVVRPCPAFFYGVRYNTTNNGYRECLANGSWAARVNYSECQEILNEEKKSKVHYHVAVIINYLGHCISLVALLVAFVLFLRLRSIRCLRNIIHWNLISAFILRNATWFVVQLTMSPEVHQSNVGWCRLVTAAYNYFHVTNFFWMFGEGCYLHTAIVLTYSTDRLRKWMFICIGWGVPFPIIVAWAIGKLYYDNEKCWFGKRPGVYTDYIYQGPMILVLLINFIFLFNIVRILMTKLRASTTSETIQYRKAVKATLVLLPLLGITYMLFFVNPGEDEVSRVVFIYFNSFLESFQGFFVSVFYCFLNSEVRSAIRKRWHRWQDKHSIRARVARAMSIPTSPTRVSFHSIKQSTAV
Chain of Mitogen-activated protein kinase 14 (Homo sapiens) (Q16539 whole entry): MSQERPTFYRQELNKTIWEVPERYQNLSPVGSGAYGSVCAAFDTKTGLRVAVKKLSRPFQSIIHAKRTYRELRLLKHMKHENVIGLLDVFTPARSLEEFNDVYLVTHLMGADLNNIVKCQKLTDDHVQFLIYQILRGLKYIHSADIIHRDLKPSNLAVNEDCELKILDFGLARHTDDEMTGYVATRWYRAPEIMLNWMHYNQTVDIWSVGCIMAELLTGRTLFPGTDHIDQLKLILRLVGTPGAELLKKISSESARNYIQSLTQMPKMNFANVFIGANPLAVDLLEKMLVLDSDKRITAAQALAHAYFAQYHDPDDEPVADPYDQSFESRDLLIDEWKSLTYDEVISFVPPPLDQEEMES
Chain of Guanylate cyclase soluble subunit alpha-1 (Bos taurus) (P19687 whole entry): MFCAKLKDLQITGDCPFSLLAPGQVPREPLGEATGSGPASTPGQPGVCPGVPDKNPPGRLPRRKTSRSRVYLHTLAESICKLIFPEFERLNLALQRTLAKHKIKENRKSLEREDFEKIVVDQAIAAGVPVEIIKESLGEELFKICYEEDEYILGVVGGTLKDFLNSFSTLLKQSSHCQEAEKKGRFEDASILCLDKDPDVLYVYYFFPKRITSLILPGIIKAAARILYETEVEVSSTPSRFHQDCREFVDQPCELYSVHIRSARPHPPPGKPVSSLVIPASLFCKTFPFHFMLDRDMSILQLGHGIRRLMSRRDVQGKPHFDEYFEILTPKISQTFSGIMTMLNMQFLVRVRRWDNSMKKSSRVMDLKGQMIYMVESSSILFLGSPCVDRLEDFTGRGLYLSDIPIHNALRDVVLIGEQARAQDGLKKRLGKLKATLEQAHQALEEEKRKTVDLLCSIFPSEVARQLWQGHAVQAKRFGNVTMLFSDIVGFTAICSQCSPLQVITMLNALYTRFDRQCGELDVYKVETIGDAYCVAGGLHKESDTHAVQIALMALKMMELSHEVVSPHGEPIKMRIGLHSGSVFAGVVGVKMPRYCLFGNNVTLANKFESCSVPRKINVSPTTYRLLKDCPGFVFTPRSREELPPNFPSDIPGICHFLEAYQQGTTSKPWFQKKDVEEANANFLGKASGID
Chain of Prostacyclin receptor (Homo sapiens) (P43119 whole entry): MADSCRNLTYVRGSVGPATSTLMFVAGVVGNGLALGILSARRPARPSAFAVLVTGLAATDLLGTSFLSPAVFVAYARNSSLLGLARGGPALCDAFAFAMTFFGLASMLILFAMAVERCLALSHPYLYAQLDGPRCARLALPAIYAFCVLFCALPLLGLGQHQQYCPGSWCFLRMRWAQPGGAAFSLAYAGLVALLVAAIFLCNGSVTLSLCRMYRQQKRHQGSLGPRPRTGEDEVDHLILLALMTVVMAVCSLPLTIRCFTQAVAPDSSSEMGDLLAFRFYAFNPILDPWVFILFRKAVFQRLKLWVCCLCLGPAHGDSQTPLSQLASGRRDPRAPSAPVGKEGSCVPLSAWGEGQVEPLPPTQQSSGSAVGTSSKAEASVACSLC
Chain of Mitogen-activated protein kinase 10 (Homo sapiens) (P53779 whole entry): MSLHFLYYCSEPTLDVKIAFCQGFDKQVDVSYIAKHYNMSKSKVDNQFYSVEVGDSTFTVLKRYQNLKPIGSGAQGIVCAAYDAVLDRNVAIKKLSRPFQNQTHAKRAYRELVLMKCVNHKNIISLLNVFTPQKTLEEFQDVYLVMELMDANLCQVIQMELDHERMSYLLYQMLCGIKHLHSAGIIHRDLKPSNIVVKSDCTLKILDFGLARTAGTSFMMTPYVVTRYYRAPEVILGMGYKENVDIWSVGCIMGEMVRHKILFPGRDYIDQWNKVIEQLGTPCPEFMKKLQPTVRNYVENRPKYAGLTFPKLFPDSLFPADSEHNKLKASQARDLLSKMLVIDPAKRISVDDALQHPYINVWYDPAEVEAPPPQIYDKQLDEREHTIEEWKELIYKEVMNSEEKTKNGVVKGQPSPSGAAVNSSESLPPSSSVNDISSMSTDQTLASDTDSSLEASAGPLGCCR
Chain of Protein kinase C beta type (Homo sapiens) (P05771 2-671 limits assumed): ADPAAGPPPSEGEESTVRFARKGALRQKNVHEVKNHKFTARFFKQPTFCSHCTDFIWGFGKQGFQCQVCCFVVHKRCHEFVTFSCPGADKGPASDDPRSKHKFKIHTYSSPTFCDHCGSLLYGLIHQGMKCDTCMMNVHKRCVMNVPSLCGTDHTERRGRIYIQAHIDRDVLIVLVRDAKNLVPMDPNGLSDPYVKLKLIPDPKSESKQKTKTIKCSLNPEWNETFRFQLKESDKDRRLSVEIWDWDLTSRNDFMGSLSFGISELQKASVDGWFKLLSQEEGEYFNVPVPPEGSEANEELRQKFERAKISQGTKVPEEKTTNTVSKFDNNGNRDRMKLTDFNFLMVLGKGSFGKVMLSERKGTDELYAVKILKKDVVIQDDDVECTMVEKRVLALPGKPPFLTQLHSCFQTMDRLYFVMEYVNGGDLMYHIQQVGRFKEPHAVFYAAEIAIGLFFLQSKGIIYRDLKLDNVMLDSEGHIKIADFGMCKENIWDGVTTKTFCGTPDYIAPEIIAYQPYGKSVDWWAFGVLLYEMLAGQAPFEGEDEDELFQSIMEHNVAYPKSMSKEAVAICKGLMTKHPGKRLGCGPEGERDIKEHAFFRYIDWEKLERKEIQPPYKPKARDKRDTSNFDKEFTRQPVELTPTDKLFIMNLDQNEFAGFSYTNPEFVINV

CN(C)C(=O)Cn1cc(-c2nc([C@@](C)(c3ccc(-c4cnc(N)nc4)cc3)C3CC3)no2)cn1 [BI 665915]
inactive: [1] 97% | [2] 148% | [3] 109% | [4] 95% | [5] 94% | [6] 103% | [7] 73% | [8] 96% | [9] 96% | [10] 100% | [11] 104% | [12] 98.5% | [13] 97% | [14] 97.5% | [15] 96.5%
